Reference: ChEMBL document CHEMBL1127209, “Aromatic isosteres as conformational probes for an isoprenyl subunit: application to inhibitors of squalene synthase” (Bioorg Med Chem Lett, 1993)

T1: Squalene synthase (Rattus norvegicus, UniProt Q02769)
T1 sequence (Q02769 whole entry): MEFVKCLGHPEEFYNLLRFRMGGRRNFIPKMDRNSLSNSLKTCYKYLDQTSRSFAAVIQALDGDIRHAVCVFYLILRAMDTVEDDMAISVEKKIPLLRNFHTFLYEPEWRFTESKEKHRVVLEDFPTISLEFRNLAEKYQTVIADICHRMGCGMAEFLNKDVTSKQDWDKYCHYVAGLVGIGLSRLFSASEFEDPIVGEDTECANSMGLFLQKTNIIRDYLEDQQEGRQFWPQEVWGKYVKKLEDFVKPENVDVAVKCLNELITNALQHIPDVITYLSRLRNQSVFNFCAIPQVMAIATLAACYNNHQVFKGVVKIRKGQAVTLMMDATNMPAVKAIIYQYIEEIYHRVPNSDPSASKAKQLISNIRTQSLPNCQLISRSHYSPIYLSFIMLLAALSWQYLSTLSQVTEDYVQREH


The molecules below were run against T1, Squalene synthase (assay: Tested for inhibitory potency against rat liver microsomal squalene synthase). Settings: not given.

| Molecule | Ki [nM] |
| --- | --- |
| CC(C)=CCC/C(C)=C\CC/C(C)=C/COCP(=O)(O)CP(=O)(O)O | 37 |

Same assay, conditions: read-out: I50

| Molecule | IC50 [nM] |
| --- | --- |
| CC(C)=CCC/C(C)=C/c1cc(C)c(COCP(=O)(O)CP(=O)(O)O)o1 | 41300 |
| CC(C)=CCC/C(C)=C/c1ccc(COCP(=O)(O)CP(=O)(O)O)s1 | 964 |
| CC(C)=CCC/C(C)=C\CC/C(C)=C/COCP(=O)(O)CP(=O)(O)O | 50 |
| CC(C)=CCC/C(C)=C/c1ccc(COCP(=O)(O)CP(=O)(O)O)cc1 | 125 |
| CC(C)=CCC/C(C)=C\CC/C=C/COCP(=O)(O)CP(=O)(O)O | 165 |
| CC(C)=CCC/C(C)=C/c1cc(C)c(COCP(=O)(O)CP(=O)(O)O)s1 | 5300 |
| CC(C)=CCC/C(C)=C/c1ccc(COCP(=O)(O)CP(=O)(O)O)c(C)c1 | 13700 |
| CC(C)=CCC/C(C)=C/c1cccc(COCP(=O)(O)CP(=O)(O)O)c1 | 5100 |

These molecules were tested on CC(C)=CCC/C(C)=C\CC/C(C)=C/COCP(=O)(O)CP(=O)(O)O (assay: Tested for Michaelis-Menten constant for squalene synthase). Settings: not given.

| Molecule | Km [µM] |
| --- | --- |
| Squalene synthase (Rattus norvegicus), Q02769 (protein) MEFVKCLGHPEEFYNLLRFRMGGRRNFIPKMDRNSLSNSLKTCYKYLDQTSRSFAAVIQALDGDIRHAVCVFYLILRAMDTVEDDMAISVEKKIPLLRNFHTFLYEPEWRFTESKEKHRVVLEDFPTISLEFRNLAEKYQTVIADICHRMGCGMAEFLNKDVTSKQDWDKYCHYVAGLVGIGLSRLFSASEFEDPIVGEDTECANSMGLFLQKTNIIRDYLEDQQEGRQFWPQEVWGKYVKKLEDFVKPENVDVAVKCLNELITNALQHIPDVITYLSRLRNQSVFNFCAIPQVMAIATLAACYNNHQVFKGVVKIRKGQAVTLMMDATNMPAVKAIIYQYIEEIYHRVPNSDPSASKAKQLISNIRTQSLPNCQLISRSHYSPIYLSFIMLLAALSWQYLSTLSQVTEDYVQREH | 12.7 |
